Our source for the Kd and Ki values is ChEMBL document CHEMBL1132159, “[3H]Azidodantrolene: synthesis and use in identification of a putative skeletal muscle dantrolene binding site in sarcoplasmic reticulum” (J Med Chem, 1999).

Assay [1] is described as follows: The compound was tested for binding affinity in a buffer containing 500 uM-3 mM beta,gamma-methyleneadenosine 5'-triphosphate(AMP-PCP) in porcine sarcoplasmic reticulum.
Assay [2] is described as follows: The compound was tested for binding affinity against porcine sarcoplasmic reticulum(SR) membrane.
Assay [3] can be described thus: The compound was tested for binding affinity in the absence of beta, gamma- methyleneadenosine 5'-triphosphate(AMP-PCP) in porcine sarcoplasmic reticulum.
The nature of assay [4]: Binding affinity against porcine sarcoplasmic reticulum.
Assay [5] in a line: The compound was tested for binding affinity against porcine sarcoplasmic reticulum(SR) membrane in the absence or presence of atropine.
Assay [6] in a line: The compound was tested for binding affinity against porcine sarcoplasmic reticulum.
Assay [7] is described as follows: The compound was tested for binding affinity against porcine sarcoplasmic reticulum(SR) membrane in the absence or presence of dantrolene from porcine sarcoplasmic reticulum.
A short description of assay [8]: The compound was tested for binding affinity against porcine sarcoplasmic reticulum(SR) membrane in the absence or presence of azumolene.

Molecules are shown by their SMILES.

Regarding `[3H]/C(=N\N1CC(=O)[N-]C1=O)c1ccc(-c2ccc([N+](=O)[O-])cc2)o1.[Na+]`, the values for the Kd in assay [1] and in assay [3] were 0.21 µM and 0.275 µM, respectively. The compound further registered a Ki in assay [2] of 1.5 µM.
`O=C1CN(/N=C/c2ccc(-c3ccc([N+](=O)[O-])cc3)o2)C(=O)N1` [DANTROLENE SODIUM] registered an equilibrium dissociation constant (Kd) in assay [4] of 0.3 µM.
As to `[3H]/C(=N\N1CC(=O)[N-]C1=O)c1ccc(-c2ccc(N=[N+]=[N-])cc2)o1.[Na+]` [[3H]-AZIDODANTROLINE], the inhibition constant Ki was determined as 100 µM in assay [5], 0.175 µM in assay [6], 20 µM in assay [7] and 100 µM in assay [8].

For orientation: Kd means the equilibrium constant for the complex coming apart. Higher therefore signals a looser complex. As a reminder, the Ki is a measure of affinity in units of concentration, obtained from inhibition or displacement.
